In ChEMBL document CHEMBL1201862, “PubChem BioAssay data set” (2004):
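Interpolation was linear, between the two tested concentrations surrounding the appropriate level; five concentrations were tested over 48 hours in 96-well plates. GI50 marks 50% less growth.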 The source made the active and inactive calls. Cut-off read from the data, not from the text of the source: active = GI50 up to about 1.1 µM and inactive = higher.

What was measured:
Test in all cases: DTP human tumour cell line panel, 48 h
CAKI-1 = test system: CAKI-1
DMS-273 = test system: DMS-273
HL-60 = test system: HL-60
IGROV-1 = test system: IGROV-1
KM12 = test system: KM12
LOX IMVI = test system: LOX IMVI
MDA-MB-231 = test system: MDA-MB-231
MDA-N = test system: MDA-N
NCI-H23 = test system: NCI-H23
NCI-H522 = test system: NCI-H522
PC-3 = test system: PC-3
SK-MEL-2 = test system: SK-MEL-2
SW-620 = test system: SW-620
T47D = test system: T47D
U-251 = test system: U-251
UACC-257 = test system: UACC-257
UO-31 = test system: UO-31
NCI-H460 = test system: NCI-H460
OVCAR-3 = test system: OVCAR-3
RPMI-8226 = test system: RPMI-8226

Compound | GI50 (CAKI-1) | GI50 (DMS-273) | GI50 (HL-60) | GI50 (IGROV-1) | GI50 (KM12) | GI50 (LOX IMVI) | GI50 (MDA-MB-231) | GI50 (MDA-N) | GI50 (NCI-H23) | GI50 (NCI-H522) | GI50 (PC-3) | GI50 (SK-MEL-2) | GI50 (SW-620) | GI50 (T47D) | GI50 (U-251) | GI50 (UACC-257) | GI50 (UO-31) | GI50 (NCI-H460) | GI50 (OVCAR-3) | GI50 (RPMI-8226)
CN1CCN(c2ccc3[nH]c(-c4ccc5[nH]c(-c6ccc(O)cc6)nc5c4)nc3c2)CC1 | 105 µM (inactive) | 21.6 µM (inactive) | 11.9 µM (inactive) | 117 µM (inactive) | 242 µM (inactive) | 85.5 µM (inactive) | 481 µM (inactive) | 22.9 µM (inactive) | 240 µM (inactive) | 9.82 µM (inactive) | 687 µM (inactive) | > 100 µM (inactive) | 102 µM (inactive) | 9.4 µM (inactive) | 179 µM (inactive) | 52.1 µM (inactive) | 564 µM (inactive) |  |  | 
C=C1C(=O)OC2C1CCC(C)C1C=CC(=O)C12C (stereo not given) | 2.97 µM (inactive) | 4.08 µM (inactive) | 1.41 µM (inactive) | 6.14 µM (inactive) | 2.16 µM (inactive) | 1.93 µM (inactive) | 2.19 µM (inactive) | 1.77 µM (inactive) | 3.25 µM (inactive) | 0.891 µM (active) | 4.49 µM (inactive) | 4.39 µM (inactive) | 1.8 µM (inactive) | 2.45 µM (inactive) | 11.9 µM (inactive) | 1.97 µM (inactive) | 4.75 µM (inactive) | 4.84 µM (inactive) | 1.22 µM (inactive) | 1.81 µM (inactive)
CCCCCCCCCOC(=S)NC | 20.7 µM (inactive) | 18.3 µM (inactive) | 15.4 µM (inactive) | 24.2 µM (inactive) | 25.6 µM (inactive) | 18.2 µM (inactive) |  |  | 16.7 µM (inactive) | 14.7 µM (inactive) |  | 19.5 µM (inactive) | 20.9 µM (inactive) |  | 16.9 µM (inactive) |  | 11.2 µM (inactive) | 19.7 µM (inactive) | 19.9 µM (inactive) | 20 µM (inactive)
NNC(=O)CCC(=O)Nc1ccc(Cl)cc1Cl | > 100 µM (inactive) | 31.8 µM (inactive) | 94.4 µM (inactive) | > 100 µM (inactive) | > 100 µM (inactive) | 43.8 µM (inactive) |  |  | > 100 µM (inactive) | > 100 µM (inactive) |  | 54.6 µM (inactive) | > 100 µM (inactive) |  | > 100 µM (inactive) | > 100 µM (inactive) | > 100 µM (inactive) | > 100 µM (inactive) | > 100 µM (inactive) | 80.5 µM (inactive)
O=[N+]([O-])c1cccc(/C=N\NS(=O)(=O)c2ccc(Cl)cc2)c1O | > 100 µM (inactive) | > 100 µM (inactive) | 46.9 µM (inactive) | 49.4 µM (inactive) | > 100 µM (inactive) | > 100 µM (inactive) |  |  | 44.3 µM (inactive) | 31.8 µM (inactive) |  | 76.6 µM (inactive) | > 100 µM (inactive) |  | 55.5 µM (inactive) | > 100 µM (inactive) | 67.3 µM (inactive) | 82.8 µM (inactive) | 65.8 µM (inactive) | 55.5 µM (inactive)
O=C(c1ccccc1)[C@H]1Nc2cnccc2C2c3ccccc3CC21 (stereo not given in full) | 24.9 µM (inactive) | 26.6 µM (inactive) | 4.63 µM (inactive) | 24 µM (inactive) | 42.1 µM (inactive) | 1.57 µM (inactive) |  |  | 8.51 µM (inactive) | 2.78 µM (inactive) |  | 11.1 µM (inactive) | 17.9 µM (inactive) |  | 11.3 µM (inactive) | 13.2 µM (inactive) | 7.21 µM (inactive) | 15.1 µM (inactive) | 7.69 µM (inactive) | 7 µM (inactive)
CN1C(c2ccccc2)CC(C)(O)CC1c1ccccc1 (stereo not given) | > 100 µM (inactive) | > 100 µM (inactive) | 99.5 µM (inactive) | > 100 µM (inactive) | > 100 µM (inactive) | > 100 µM (inactive) |  |  | > 100 µM (inactive) | > 100 µM (inactive) |  | > 100 µM (inactive) | > 100 µM (inactive) |  | > 100 µM (inactive) | > 100 µM (inactive) | > 100 µM (inactive) | > 100 µM (inactive) | > 100 µM (inactive) | > 100 µM (inactive)
N=C(N)NCCCC(Nc1c2ccccc2[n+]([O-])c2ccccc12)C(=O)O (stereo not given) |  | 40.5 µM (inactive) | 14.8 µM (inactive) | > 100 µM (inactive) | 68.4 µM (inactive) | 37.3 µM (inactive) |  |  | 34.6 µM (inactive) | 29 µM (inactive) |  | 88.3 µM (inactive) | 59.2 µM (inactive) |  | 72.3 µM (inactive) |  | 30.8 µM (inactive) | 46 µM (inactive) | 63.4 µM (inactive) | 10.4 µM (inactive)
